{"source": "paper PMC8397634", "about": "(Journal of Natural Medicines, 2021)", "key": {"α4β2 nAChRs [1]": {"molecular_target": "T1, α4β2 nAChRs (Homo sapiens, UniProt P17787+P43681)", "T1 sequence (P43681 29-627 limits assumed)": "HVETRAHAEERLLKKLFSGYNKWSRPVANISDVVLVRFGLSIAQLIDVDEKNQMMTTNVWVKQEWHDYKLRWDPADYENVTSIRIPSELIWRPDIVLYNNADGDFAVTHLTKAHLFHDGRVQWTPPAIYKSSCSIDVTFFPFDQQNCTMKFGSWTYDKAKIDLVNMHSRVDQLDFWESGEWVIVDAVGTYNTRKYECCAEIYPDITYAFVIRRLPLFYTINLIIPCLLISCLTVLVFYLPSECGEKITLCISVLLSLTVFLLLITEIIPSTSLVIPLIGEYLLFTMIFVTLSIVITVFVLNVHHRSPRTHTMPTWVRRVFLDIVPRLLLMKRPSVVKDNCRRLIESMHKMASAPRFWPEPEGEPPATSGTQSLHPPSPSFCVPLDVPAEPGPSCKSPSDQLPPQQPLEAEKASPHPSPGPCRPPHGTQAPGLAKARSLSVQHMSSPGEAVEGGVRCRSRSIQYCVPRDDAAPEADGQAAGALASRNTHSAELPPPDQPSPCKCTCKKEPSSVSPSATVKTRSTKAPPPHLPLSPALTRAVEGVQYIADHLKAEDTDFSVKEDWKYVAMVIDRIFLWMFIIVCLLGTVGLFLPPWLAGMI", "T1 sequence (P17787 26-502)": "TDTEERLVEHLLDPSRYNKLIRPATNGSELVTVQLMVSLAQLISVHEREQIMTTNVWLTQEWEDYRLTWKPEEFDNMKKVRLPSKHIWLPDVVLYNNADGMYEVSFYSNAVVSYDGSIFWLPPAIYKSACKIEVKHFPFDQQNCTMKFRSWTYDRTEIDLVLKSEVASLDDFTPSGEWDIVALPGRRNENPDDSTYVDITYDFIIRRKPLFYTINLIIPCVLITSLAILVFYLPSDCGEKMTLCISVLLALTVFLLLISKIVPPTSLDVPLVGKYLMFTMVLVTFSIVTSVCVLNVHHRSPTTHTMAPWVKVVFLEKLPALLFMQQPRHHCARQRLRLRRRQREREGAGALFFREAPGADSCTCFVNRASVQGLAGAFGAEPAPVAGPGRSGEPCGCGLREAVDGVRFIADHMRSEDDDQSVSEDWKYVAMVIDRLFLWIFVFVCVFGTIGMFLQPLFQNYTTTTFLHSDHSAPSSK", "assay": "In vitro nAChR functional assay (automated patch-clamp, CHO cells)", "format": "cell-based", "description": "Electrophysiological responses were recorded using an automated patch-clamp Patchliner Octo® system (Nanion Technologies, Munich, Germany) equipped with two EPC-10 Quadro patch-clamp amplifiers (HEKA Elektronik, Lambrecht, Germany) as described previously. Chinese hamster ovarian (CHO) cells stably expressing human α4β2 nAChRs (Charles River Laboratories, Wilmington, MA, USA) were used. All experiments were performed at room temperature (24 °C) and repeated at least three times. Data were analyzed using Patchmaster software (HEKA Elektronik). Offline data analysis was performed in Apache OpenOffice™ (v4.1.2; […]). Igor Pro software (v6.2.2.2; WaveMetrics, Lake Oswego, OR, USA) was used to determine EC50 values. […] The average values were then fitted to the Hill equation: I=Baseline+X^∧nH(Imax-Baseline)/X^∧nH+EC50^∧nH, where I is the current response, Baseline is the minimal current response, X is the agonist concentration, nH is the Hill coefficient, Imax is the maximal current, and EC50 is the agonist concentration producing half-maximal activation. […]"}, "[2]": {"test_system": "zebrafish (Danio rerio; strain AB)", "details": "in vivo", "description": "The NTT conditions closely matched the most commonly used conditions described by. In brief, adult male and female wild-type zebrafish were treated with the compounds for 20 min in a final volume of 50 mL in a 250-mL treatment beaker, one fish at a time. The fish were briefly rinsed in fresh system water, and then immediately transferred to a trapezoidal tank (14.6-cm height × 5.5-cm width × 27.9-cm top length and × 23.6-cm bottom length) filled with 1.5 L system water. The behavior of the fish was monitored for the next 5 min using the Noldus EthoVision XT system (Wageningen, Netherlands), with the camera placed approximately 1 m from the test tank. The tanks were uniformly illuminated from above at approximately 200 lx, reported to be the optimal illumination condition for NTT [23]. Background noise was kept at a minimum during the test. All experimental parameters were monitored closely and kept as consistent as possible throughout the study. The part of the tank filled with water (11.5-cm height) was virtually divided into top, center, and bottom of equal heights (approximately 3.8 cm per segment) for the analyses. The average time spent at the top and bottom portions of the tank was analyzed to determine the anxiety-like behavior of fish. The average total distance traveled and freezing time (as defined by a complete cessation of movement except for gills and eyes) were calculated to determine the effects of the compounds on the general behavior of fish. The analyses were conducted for 1-min time bins. To account for any day-to-day variability in fish behavior, fish treated with vehicle were tested on the same day as the compounds. […] A minimum of 12 fish (6 females and 6 males) per condition were used for the study. The actual sample size per condition is indicated in Online Resource 1. […] The experimenters were blind to the test conditions. The NTT was validated with buspirone, a clinical anxiolytic drug, as previously described.\nIf not, the concentration was reduced until no obvious signs of tolerability problems were observed. […] The concentrations were calculated based on the free base molecular weight.\nTwo-way repeated measures analysis of variance (ANOVA) with Dunnett post hoc was used for the 1-min binned analysis of the zebrafish NTT data. Treatment was one factor, and time was the second factor. […] Thus, male and female datasets were combined for the final analyses. […] The EC50 values were determined by applying the nonlinear regression analysis. All analyses were conducted using GraphPad Prism v8.2.1 (GraphPad Software, San Diego, CA, USA)."}, "[3]": {"assay": "Brain bioavailability assay in zebrafish (UPLC-HRMS of brain homogenate)", "format": "in vivo, Danio rerio", "details": "both sexes, zebrafish (Danio rerio), in vivo, 1 mg/L; zebrafish brain after 20-min exposure; linear relationship assumed; mean ± SEM; read-out: Relative brain level per 1 mg/L compound", "description": "Four fish (2 males and 2 females) per compound were used to determine the brain bioavailability of the compounds. Immediately after the 20-min compound treatment, the zebrafish were rinsed briefly to remove excessive compound on their body and terminated with 250 mg/L tricaine (CAS No. 886-86-2; Sigma). The fish were decapitated at the level of the gills using a surgical knife. The head was turned dorsal side down, and soft tissue was removed from the ventral side of the skull until the base of the skull was exposed. The skull was broken open and the bone from the ventral side of the brain was removed. The brain was then placed in a microcentrifuge tube, weighed, snap-frozen in liquid nitrogen, and stored at – 80 °C until the analysis.\nBriefly, on the day of analysis, the brain samples were defrosted, resuspended in a methanol solution (2:1 [v/v] methanol:MilliQ water), and homogenized with vigorous agitation and ultrasonication (5 min each). The homogenate was centrifuged at 15,000 × rpm for 10 min, and the supernatant was analyzed using a UPLC-Q Exactive Orbitrap-HRMS system (Thermo Fisher Scientific™, Bremen, Germany). Chromatographic separation was achieved on a Synergi™ 4-µm Hydro-RP 80 Å, L.C. Column (250 × 4.6 mm; Phenomenex Inc., Torrance, CA, USA) with 0.1% formic acid in water (mobile phase A) and 0.1% formic acid in acetonitrile (mobile phase B). A gradient method at a 500 µL/min flow rate was applied as follows: (1) 5% B for 1 min, and (2) increase to 95% B over 7 min and hold for 2 min. The injection volume was 5 μL. The mass spectrometer was operated in electrospray positive mode (ESI, Thermo Fisher Scientific), while data acquisition was performed using the parallel reaction monitoring (PRM) and full scan modes. The source settings were set as follows: sheath gas flow rate = 60 psi; aux gas flow rate = 20 arbitrary units; spray voltage = 3.5 kV; capillary temperature = 280 °C; and sweep gas flow rate = 1. The full scan mode parameters were set as follows: resolution = 35,000 FWHM at 200 m/z; AGC target = 1E6; maximum injection time = 110 ms; and scan range = 100–350 m/z. The chromatographic and Orbitrap MS parameters for PRM analysis were the same as those in the full scan mode, except for: AGC target = 2E5; maximum IT = 60 ms; and resolution = 17,500 FWHM at 200 m/z. The XCalibur™ v4.0.27.19 software (Thermo Fisher Scientific) and TraceFinder™ v4.1 Forensic (Thermo Fisher Scientific, San José, CA, USA) were used for system control and data processing, respectively. The Q Exactive 2.8 SP 1 software (Thermo Fisher Scientific) was used to control the mass spectrometer."}, "[4]": {"test_system": "other molecular targets (175 in vitro binding and enzymatic assays)", "assay": "In vitro molecular target profiling (175 binding and enzymatic assays)", "details": "10 µM single concentration; 175 assays; effect greater than 50% considered significant", "description": "(§1) All binding and functional assays for molecular target characterization were conducted by Eurofins Cerep SA (Celle-Lévescault, France) and Eurofins Panlabs Discovery Services Taiwan, Ltd. (New Taipei City, Taiwan) using their standard in vitro binding and functional assays (Online Source 2). The radioligand displacement binding assays employed the gold-standard filtration method using membrane preparations from stable cell lines expressing human or rodent target proteins to determine the interaction of the compounds with specific receptors, channels, and transporters. For this purpose, the competitive binding of test compounds against a [^125I]-, [^3H]-, or [^35S]-labeled agonist and/or antagonist was determined. The specific list of radiolabeled ligands and experimental conditions are summarized in Online Source 2. A single concentration of each compound (10 µM in 0.1% DMSO) was used for the screen. […] Negative values were considered to be an artifact arising from, for example, compounds interfering with the assay readout.\n3.1. Experimental Conditions\nIn Vitro Pharmacology: Binding Assays\n(§2) Assay Source Ligand Conc. Kd Non Specific Incubation Detection Bibl."}, "muscle-type nAChR": {"molecular_target": "T2, muscle-type nAChR (Homo sapiens, UniProt P02708+P07510+Q07001)", "T2 construct": "TE671 cells; host or cells: TE671 cells (endogenous)", "T2 sequence (P02708 21-457)": "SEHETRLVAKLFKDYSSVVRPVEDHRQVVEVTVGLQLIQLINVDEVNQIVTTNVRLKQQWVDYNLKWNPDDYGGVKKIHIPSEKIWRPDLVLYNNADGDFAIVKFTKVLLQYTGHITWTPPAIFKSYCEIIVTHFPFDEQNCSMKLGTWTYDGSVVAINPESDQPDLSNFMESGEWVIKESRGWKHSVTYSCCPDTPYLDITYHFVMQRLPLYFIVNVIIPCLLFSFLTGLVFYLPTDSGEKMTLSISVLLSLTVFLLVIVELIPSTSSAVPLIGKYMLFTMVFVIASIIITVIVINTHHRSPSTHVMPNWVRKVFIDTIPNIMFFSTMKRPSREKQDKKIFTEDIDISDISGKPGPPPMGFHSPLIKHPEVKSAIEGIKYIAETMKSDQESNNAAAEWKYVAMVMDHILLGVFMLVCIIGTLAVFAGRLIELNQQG", "T2 sequence (Q07001 22-517)": "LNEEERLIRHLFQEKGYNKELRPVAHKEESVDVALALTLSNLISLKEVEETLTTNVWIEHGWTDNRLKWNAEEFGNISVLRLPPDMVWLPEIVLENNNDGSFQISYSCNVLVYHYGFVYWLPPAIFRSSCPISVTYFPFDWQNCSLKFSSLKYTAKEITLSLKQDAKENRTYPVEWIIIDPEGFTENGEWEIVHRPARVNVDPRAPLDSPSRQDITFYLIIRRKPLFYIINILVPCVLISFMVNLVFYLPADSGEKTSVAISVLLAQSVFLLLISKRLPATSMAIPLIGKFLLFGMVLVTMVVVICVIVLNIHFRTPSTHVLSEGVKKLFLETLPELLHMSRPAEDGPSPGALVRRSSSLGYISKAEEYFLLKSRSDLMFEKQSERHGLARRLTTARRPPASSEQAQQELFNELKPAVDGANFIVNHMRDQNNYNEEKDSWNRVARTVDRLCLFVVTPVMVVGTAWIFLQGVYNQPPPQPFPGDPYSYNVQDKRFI", "T2 sequence (P07510 23-517)": "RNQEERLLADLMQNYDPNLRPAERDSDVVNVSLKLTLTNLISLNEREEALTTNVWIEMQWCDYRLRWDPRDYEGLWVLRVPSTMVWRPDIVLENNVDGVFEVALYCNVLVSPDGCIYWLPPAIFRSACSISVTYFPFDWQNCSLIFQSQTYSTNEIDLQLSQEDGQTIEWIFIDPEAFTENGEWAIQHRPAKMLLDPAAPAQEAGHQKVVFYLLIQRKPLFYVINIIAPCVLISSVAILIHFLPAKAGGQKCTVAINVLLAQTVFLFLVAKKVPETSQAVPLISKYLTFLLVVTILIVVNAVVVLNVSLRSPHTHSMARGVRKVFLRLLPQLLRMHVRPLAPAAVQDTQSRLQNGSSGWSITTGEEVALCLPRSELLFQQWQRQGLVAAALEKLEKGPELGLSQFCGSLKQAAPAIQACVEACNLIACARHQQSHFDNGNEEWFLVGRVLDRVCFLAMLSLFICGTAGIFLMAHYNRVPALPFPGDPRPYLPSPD", "assay": "Muscle-type nAChR radioligand binding (target profiling)", "details": "10 µM single concentration; effect greater than 50% considered significant", "description": "as §1, §2"}, "α7 nAChR": {"test_system": "α7 nAChR", "details": "ref 2 (Alijevic, et al.); cited from earlier work"}, "α4β2 nAChRs [5]": {"molecular_target": "T1, α4β2 nAChRs", "assay": "In vitro α4β2 nAChR radioligand displacement binding assay", "parameters": "host or cells: SH-SY5Y cells (human recombinant), membrane preparation", "details": "10 µM single concentration; effect greater than 50% considered significant", "description": "as §1, §2"}}}
{"smiles": "CN1CCC[C@H]1c1cccnc1", "note": "[Nicotine, (–)-nicotine, reference compound]", "values": [{"measurement": "% activation of α4β2 nAChR (normalized to nicotine)", "setting": "α4β2 nAChRs [1]", "value": 100, "unit": "%"}, {"measurement": "Concentration effective in reducing anxiety-like behavior in NTT", "setting": "[2]", "value": 0.3, "unit": "mg/L"}, {"measurement": "concentration at 20 min", "setting": "[3]", "value": "700 ± 140", "unit": "ng/g"}, {"measurement": "Binding to or regulation of other molecular targets", "setting": "[4]", "value": "did not bind or regulate the activities of other molecular targets"}, {"measurement": "Binding to muscle-type nAChR in target profiling", "setting": "muscle-type nAChR", "value": "specific binding"}, {"measurement": "α7 nAChR agonist activity", "setting": "α7 nAChR", "value": "weak α7 nAChR agonist"}, {"measurement": "Binding to α4β2 nAChR in target profiling", "setting": "α4β2 nAChRs [5]", "value": "specific binding"}]}
